Results published in patent US10221177B2 (HYDRA BIOSCIENCES, INC., priority 2014, dated 2019).
“And” between values parts separate entries of the source, which are not always exact repeats. Equal entries are not always repeated. Each block holds one compound with its values, some of them ahead of it.

How the values were obtained:
human TRPA1 = human TRPA1 (Homo sapiens (Human), UniProt O75762); test: In vitro inhibition of human TRPA1, whole cell patch configuration; type: cell-based; settings: current activation 10 μM AITC, tested concentrations 320 pM to 3.2 μM, read-out: hTRPA1 IC50
In short: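 Whole-cell patch clamp, bath 150 mM NaCl, 10 mM HEPES, 1 mM EGTA, 3 mM MgCl2, pH 7.4 (sometimes 2 mM CaCl2, 1 mM MgCl2). Currents recorded continuously at −60 mV or by 400 ms ramps from −40 mV holding every 4 s; inward/outward currents taken at −80/80 mV, with controlled-temperature focal perfusion.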

[1] = tested on: formalin-induced pain behaviors in the rat; test: Formalin-induced pain test (formalin model), duration of pain behaviors; type: in vivo
In short: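 Rats dosed orally with vehicle or compound (solutions with DMSO, Solutol, Labrasol, Tween-80, Cremophor EL, or methylcellulose suspensions) one hour before intraplantar injection of 50 μL 3% formalin into hind paw. Duration of pain behaviors counted by blinded observer; Phase I covers 0-5 min; comparison to vehicle.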

[2] = tested on: CFA-induced cold hypersensitivity of the hind paw; test: CFA-induced pain test, cold hypersensitivity (cold plate paw withdrawal latency); type: in vivo; settings: cold plate 1° C.; for Average PWL Post-Treatment / PWL Change: 1-2 hour pre-treatment; for Average PWL Post-CFA: baseline before dosing
Method: Embodiments of the invention may be efficacious in the treatment of inflammatory pain. Compounds of the invention were tested by the CFA-induced pain test method. Compounds were formulated as solutions in water with various solvents and excipients including dimethyl sulfoxide (DMSO), polyethylene glycol (15)-hydroxystearate (Solutol®, Sigma-Aldrich), caprylocaproyl macrogol-8 glyceride (Labrasol®, Sigma-Aldrich), polysorbate-80 (Tween®-80, Sigma-Aldrich), and polyoxyl 35 castor oil (Cremophor® EL, BASF Corp.); or suspensions in methylcellulose as indicated in Table 3 for oral delivery. Briefly, the hind paw was sensitized to cold temperature (allodynic) by administering 0.1 mL of Complete Freund's Adjuvant (CFA) to the right hind paw. Three days later, the time taken for the animal to lift its CFA-injected paw was recorded compared to its un-injected normal left hind paw. […] To avoid tissue damage the maximum cut-off time was 5 minutes. Animals that were allodynic (average PWL to the first three pain behaviors <150 seconds for the CFA-injected hind paw: ˜≥50% difference between the normal and CFA-injected paw) were included in the study and subsequently randomized across treatment groups. The following day, the animals were dosed orally under blinded conditions. Following the 1-2 hour pre-treatment time, the post-dose PWL readings were again taken. The efficacy of the drug treatment was assessed by comparing the PWL in the drug treatment animals to those animals that receive the vehicle. P values, when indicated, indicate significance compared Vehicle.

[3] = 1 mg/kg PO one hour prior to formalin, solution in 4% DMSO, 5% Tween-80, 20% Cremophor EL, 71% water
[4] = 3 mg/kg PO one hour prior to formalin, solution in 4% DMSO, 5% Tween-80, 20% Cremophor EL, 71% water
[5] = 10 mg/kg PO one hour prior to formalin, solution in 4% DMSO, 5% Tween-80, 20% Cremophor EL, 71% water
[6] = 0.3 mg/kg PO, solution in 4% DMSO, 5% Tween-80, 20% Cremophor EL, and 71% water
[7] = 1 mg/kg PO, solution in 4% DMSO, 5% Tween-80, 20% Cremophor EL, and 71% water
[8] = 3 mg/kg PO, solution in 4% DMSO, 5% Tween-80, 20% Cremophor EL, and 71% water
[9] = group 0.3 mg/kg PO, solution in 4% DMSO, 5% Tween-80, 20% Cremophor EL, and 71% water
[10] = group 1 mg/kg PO, solution in 4% DMSO, 5% Tween-80, 20% Cremophor EL, and 71% water
[11] = group 3 mg/kg PO, solution in 4% DMSO, 5% Tween-80, 20% Cremophor EL, and 71% water
[12] = 1 mg/kg PO one hour prior to formalin, suspension in 0.5% methylcellulose
[13] = 3 mg/kg PO one hour prior to formalin, suspension in 0.5% methylcellulose
[14] = 10 mg/kg PO one hour prior to formalin, suspension in 0.5% methylcellulose
[15] = 30 mg/kg PO one hour prior to formalin, suspension in 0.5% methylcellulose
[16] = 0.3 mg/kg PO, suspension in 0.5% methylcellulose
[17] = 1 mg/kg PO, suspension in 0.5% methylcellulose
[18] = 3 mg/kg PO, suspension in 0.5% methylcellulose
[19] = 1 mg/kg PO one hour prior to formalin, solution in 4% DMSO, 5% Tween-80, 25% Cremophor EL, 66% water
[20] = 1 mg/kg PO one hour prior to formalin, solution in 8% DMSO and 92% Labrasol
[21] = 3 mg/kg PO one hour prior to formalin, solution in 4% DMSO, 5% Tween-80, 25% Cremophor EL, 66% water
[22] = 3 mg/kg PO one hour prior to formalin, solution in 8% DMSO and 92% Labrasol
[23] = 10 mg/kg PO one hour prior to formalin, solution in 4% DMSO, 5% Tween-80, 25% Cremophor EL, 66% water
[24] = 10 mg/kg PO one hour prior to formalin, solution in 8% DMSO and 92% Labrasol
[25] = 30 mg/kg PO one hour prior to formalin, solution in 8% DMSO and 92% Labrasol
[26] = 1 mg/kg PO, solution in 4% DMSO, 5% Tween-80, 25% Cremophor EL, and 66% water
[27] = 3 mg/kg PO, solution in 4% DMSO, 5% Tween-80, 25% Cremophor EL, and 66% water
[28] = 10 mg/kg PO, solution in 4% DMSO, 5% Tween-80, 25% Cremophor EL, and 66% water

Chain of human TRPA1 (O75762 whole entry, the tested form may be a part): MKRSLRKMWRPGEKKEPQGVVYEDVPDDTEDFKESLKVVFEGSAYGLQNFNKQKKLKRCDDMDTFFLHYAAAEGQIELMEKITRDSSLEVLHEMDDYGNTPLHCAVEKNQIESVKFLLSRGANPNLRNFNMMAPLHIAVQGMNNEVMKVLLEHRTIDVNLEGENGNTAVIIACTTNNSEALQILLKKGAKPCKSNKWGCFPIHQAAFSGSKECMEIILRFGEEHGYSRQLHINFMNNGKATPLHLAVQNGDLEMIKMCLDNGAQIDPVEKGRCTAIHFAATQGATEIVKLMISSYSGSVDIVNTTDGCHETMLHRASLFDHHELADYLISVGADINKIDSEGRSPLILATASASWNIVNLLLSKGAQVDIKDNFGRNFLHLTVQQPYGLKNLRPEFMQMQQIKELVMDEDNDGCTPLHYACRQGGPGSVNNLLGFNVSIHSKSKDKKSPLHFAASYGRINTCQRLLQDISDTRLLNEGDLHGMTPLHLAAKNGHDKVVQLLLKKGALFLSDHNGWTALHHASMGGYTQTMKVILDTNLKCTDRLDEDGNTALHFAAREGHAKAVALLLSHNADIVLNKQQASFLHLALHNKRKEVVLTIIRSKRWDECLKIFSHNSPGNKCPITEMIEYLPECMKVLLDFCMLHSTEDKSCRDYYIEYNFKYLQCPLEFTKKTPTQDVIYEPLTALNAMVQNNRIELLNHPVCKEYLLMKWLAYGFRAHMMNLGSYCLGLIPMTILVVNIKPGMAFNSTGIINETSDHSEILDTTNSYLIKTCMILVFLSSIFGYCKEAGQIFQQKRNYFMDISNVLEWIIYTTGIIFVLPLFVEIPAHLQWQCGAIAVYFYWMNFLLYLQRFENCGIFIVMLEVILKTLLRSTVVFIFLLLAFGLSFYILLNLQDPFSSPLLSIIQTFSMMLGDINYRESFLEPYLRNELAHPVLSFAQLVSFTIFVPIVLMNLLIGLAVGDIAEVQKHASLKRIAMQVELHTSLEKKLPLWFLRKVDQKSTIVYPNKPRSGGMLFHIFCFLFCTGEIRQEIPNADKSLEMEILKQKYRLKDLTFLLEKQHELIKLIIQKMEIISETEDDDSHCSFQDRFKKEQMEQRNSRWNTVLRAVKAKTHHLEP

IC50 (human TRPA1): 5 nM
Structure (SMILES): CC(=O)Cn1c(=O)c2c(ncn2[C@@H](C)C(=O)Nc2cccc(-c3cnc(C)c(C(F)(F)F)c3)n2)n(C)c1=O [Compound 97, (S)-2-(3-methyl-2,6-dioxo-1-(2-oxopropyl)-2,3-dihydro-1H-purin-7(6H)-yl)-N-(6′-methyl-5′-(trifluoromethyl)-[2,3′-bipyridin]-6-yl)propanamide]
Duration (0-2 Minutes) Average [1, 3]: 69.3 s
Duration (0-5 Minutes) Average [1, 3]: 162.4 s
Duration (0-2 Minutes) Average [1, 4]: 78.5 s
Duration (0-5 Minutes) Average [1, 4]: 175.3 s
Duration (0-2 Minutes) Average [1, 5]: 56.8 s
Duration (0-5 Minutes) Average [1, 5]: 185.4 s
Average PWL Post-Treatment [2, 6]: 194.7
PWL Change [2, 6]: 77.3 s
Average PWL Post-Treatment [2, 7]: 262.7
PWL Change [2, 7]: 149.8 s
Average PWL Post-Treatment [2, 8]: 260.8
PWL Change [2, 8]: 157.3 s
Average PWL Post-CFA [2, 9]: 117.3
Average PWL Post-CFA [2, 10]: 112.9
Average PWL Post-CFA [2, 11]: 103.5

IC50 (human TRPA1): 19 nM
Structure (SMILES): Cc1cc(Cn2c(=O)c3c(ncn3[C@@H](C)C(=O)Nc3cncc(-c4cnc(C(F)(F)F)nc4)n3)n(C)c2=O)no1 [Compound 21, (S)-2-(3-methyl-1-((5-methylisoxazol-3-yl)methyl)-2,6-dioxo-2,3-dihydro-1H-purin-7(6H)-yl)-N-(6-(2-(trifluoromethyl)pyrimidin-5-yl)pyrazin-2-yl)propanamide]
Duration (0-2 Minutes) Average [1, 3]: 99.6 s
Duration (0-5 Minutes) Average [1, 3]: 206.9 s
Duration (0-2 Minutes) Average [1, 12]: 80.5 s
Duration (0-5 Minutes) Average [1, 12]: 202.5 s
Duration (0-2 Minutes) Average [1, 4]: 97.5 s
Duration (0-5 Minutes) Average [1, 4]: 186.9 s
Duration (0-2 Minutes) Average [1, 13]: 86.5 s
Duration (0-5 Minutes) Average [1, 13]: 190.1 s
Duration (0-2 Minutes) Average [1, 5]: 71.8 s
Duration (0-5 Minutes) Average [1, 5]: 116.5 s
Duration (0-2 Minutes) Average [1, 14]: 78.0 s and 92.3 s
Duration (0-5 Minutes) Average [1, 14]: 202.8 s and 163.1 s
Duration (0-2 Minutes) Average [1, 15]: 100.5 s
Duration (0-5 Minutes) Average [1, 15]: 165.4 s
Average PWL Post-Treatment [2, 6]: 159.2
PWL Change [2, 6]: 49.6 s
Average PWL Post-Treatment [2, 16]: 106.4
PWL Change [2, 16]: 11.9 s
Average PWL Post-Treatment [2, 7]: 208.5
PWL Change [2, 7]: 94.2 s
Average PWL Post-Treatment [2, 17]: 155.2
PWL Change [2, 17]: 59.8 s
Average PWL Post-Treatment [2, 8]: 258.9
PWL Change [2, 8]: 148.8 s
Average PWL Post-Treatment [2, 18]: 236.7
PWL Change [2, 18]: 142.4 s
Average PWL Post-CFA [2, 9]: 109.6
Average PWL Post-CFA ([2]; group 0.3 mg/kg PO, suspension in 0.5% methylcellulose): 94.5
Average PWL Post-CFA [2, 10]: 114.3
Average PWL Post-CFA ([2]; group 1 mg/kg PO, suspension in 0.5% methylcellulose): 95.4
Average PWL Post-CFA [2, 11]: 110.1
Average PWL Post-CFA ([2]; group 3 mg/kg PO, suspension in 0.5% methylcellulose): 94.3

IC50 (human TRPA1): 2 nM
Structure (SMILES): CC(=O)Cn1c(=O)c2c(ncn2[C@@H](C)C(=O)Nc2csc(-c3cnc(N4CC5CC5C4)nc3)n2)n(C)c1=O (stereo partly drawn) [Compound 153, (2S)—N-(2-(2-(3-azabicyclo[3.1.0]hexan-3-yl)pyrimidin-5-yl)thiazol-4-yl)-2-(3-methyl-2,6-dioxo-1-(2-oxopropyl)-2,3-dihydro-1H-purin-7(6H)-yl)propanamide]
Duration (0-2 Minutes) Average [1, 19]: 71.4 s
Duration (0-5 Minutes) Average [1, 19]: 164.6 s
Duration (0-2 Minutes) Average [1, 20]: 84.5 s
Duration (0-5 Minutes) Average [1, 20]: 172.5 s
Duration (0-2 Minutes) Average [1, 21]: 81.5 s
Duration (0-5 Minutes) Average [1, 21]: 216.9 s
Duration (0-2 Minutes) Average [1, 22]: 86.4 s
Duration (0-5 Minutes) Average [1, 22]: 198.8 s
Duration (0-2 Minutes) Average [1, 23]: 50.1 s
Duration (0-5 Minutes) Average [1, 23]: 160.3 s
Duration (0-2 Minutes) Average [1, 24]: 87.9 s
Duration (0-5 Minutes) Average [1, 24]: 214.6 s
Duration (0-2 Minutes) Average [1, 25]: 31.9 s and 52.8 s
Duration (0-5 Minutes) Average [1, 25]: 173.1 s and 173.4 s
Average PWL Post-Treatment [2, 26]: 178.1
PWL Change [2, 26]: 85.6 s
Average PWL Post-Treatment [2, 27]: 223.6
PWL Change [2, 27]: 130.8 s
Average PWL Post-Treatment [2, 28]: 247.1
PWL Change [2, 28]: 154.3 s
Average PWL Post-CFA ([2]; group 1 mg/kg PO, solution in 4% DMSO, 5% Tween-80, 25% Cremophor EL, and 66% water): 92.5
Average PWL Post-CFA ([2]; group 3 mg/kg PO, solution in 4% DMSO, 5% Tween-80, 25% Cremophor EL, and 66% water): 92.8
Average PWL Post-CFA ([2]; group 10 mg/kg PO, solution in 4% DMSO, 5% Tween-80, 25% Cremophor EL, and 66% water): 92.7
